For this test, the target named is T1, human CGT (Homo sapiens, UniProt Q16880).
T1 sequence (Q16880 21-541): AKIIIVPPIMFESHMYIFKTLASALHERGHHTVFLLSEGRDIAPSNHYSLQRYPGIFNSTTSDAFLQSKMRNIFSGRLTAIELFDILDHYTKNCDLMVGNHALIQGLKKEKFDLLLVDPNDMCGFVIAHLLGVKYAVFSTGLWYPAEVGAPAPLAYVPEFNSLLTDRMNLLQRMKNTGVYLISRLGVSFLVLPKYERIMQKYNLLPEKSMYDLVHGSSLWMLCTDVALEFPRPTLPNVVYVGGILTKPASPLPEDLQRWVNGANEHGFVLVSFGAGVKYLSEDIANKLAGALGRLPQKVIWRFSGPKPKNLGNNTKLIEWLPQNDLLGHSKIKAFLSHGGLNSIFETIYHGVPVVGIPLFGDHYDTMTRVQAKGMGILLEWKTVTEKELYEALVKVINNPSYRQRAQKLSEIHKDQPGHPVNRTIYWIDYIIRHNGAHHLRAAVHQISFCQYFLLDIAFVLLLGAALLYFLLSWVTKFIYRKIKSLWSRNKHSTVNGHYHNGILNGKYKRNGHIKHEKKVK
Nature of the test: Assay 1: CGT Enzymatic Assay (RapidFire/MS/MS, 0.01% Tween 80). Format: biochemical. The following applies: Table 1, Compounds of Formula (I) and Formula (II), CGT enzymatic assay, read-out: IC50.

The mark [1] stands for this setting: C6-NBD-dihydro-galactosylceramide readout.

Structures are written as SMILES. Like-named read-outs stand apart in the source and are kept apart here.

Data on 35 compounds can be found in US20190134005A1 (BioMarin Pharmaceutical Inc., priority 2016, published 2019).

On to `CC(=O)c1cccc(-c2c(C)n(-c3ccc(Cl)cc3)c(=O)n2-c2ccc(Cl)cc2)c1` [Compound 253, 4-(3-acetylphenyl)-1,3-bis(4-chlorophenyl)-5-methyl-1,3-dihydro-2H-imidazol-2-one], for which the IC50 lay within 1000 to 10000 nM.
Still for that read-out and setting: the figure for `C[C@@H]1N(c2ccc(Br)cc2)C(=O)N(c2ccc(Br)cc2)C1(O)c1cccc(Cl)c1` (stereo partly drawn) [Compound 73-1, (5S)-1,3-bis(4-bromophenyl)-4-(3-chlorophenyl)-4-hydroxy-5-methylimidazolidin-2-one] is less than 1000 nM; for `N#Cc1cccc(C2(O)N(c3ccc(Cl)cc3)C(=O)N(c3ccc(Cl)cc3)C23CC3)c1` (centres unmarked) [Example 226, 3-(4,6-bis(4-chlorophenyl)-7-hydroxy-5-oxo-4,6-diazaspiro[2.4]heptan-7-yl)benzonitrile] it is less than 1000 nM; for `Cc1cccc(-c2c(C)n(-c3ccc(Cl)cc3)c(=O)n2-c2ccc(Cl)cc2)c1` [Compound 260, 1,3-bis(4-chlorophenyl)-4-methyl-5-(m-tolyl)-1,3-dihydro-2H-imidazol-2-one] it is 1000 to 10000 nM.
On the same count and under the same terms, the figure for `O=C1N(c2ccc(Br)cc2)C(=O)C(O)(c2cccc3ccccc23)N1c1ccc(Br)cc1` (centres unmarked) [Example 195, 1,3-bis(4-bromophenyl)-5-hydroxy-5-(naphthalen-1-yl)imidazolidine-2,4-dione] is greater than 50000 nM.
The same measure, in the same setting: the figure for `CCc1c(-c2cccc(C(F)(F)F)c2)n(-c2ccc(Cl)cc2)c(=O)n1-c1ccc(Cl)cc1` [Example 40, 1,3-bis(4-chlorophenyl)-4-ethyl-5-(3-(trifluoromethyl)phenyl)-1,3-dihydro-2H-imidazol-2-one] is less than 1000 nM; for `CC(C)c1c(-c2cccc(OC(F)(F)F)c2)n(-c2ccc(Cl)cc2)c(=O)n1-c1ccc(Cl)cc1` [Example 50] it is less than 1000 nM; for `C[C@@]1(c2cccc(C(F)(F)F)c2)C(O)N(c2ccc(Cl)cc2)C(=O)N1c1ccc(Cl)cc1` (stereo partly drawn) [Example 190-2, (4R)-1,3-bis(4-chlorophenyl)-5-hydroxy-4-methyl-4-(3-(trifluoromethyl)phenyl)imidazolidin-2-one] it is less than 1000 nM.
Consider `C[C@]1(c2cccc(C(F)(F)F)c2)C(O)N(c2ccc(Cl)cc2)C(=O)N1c1ccc(Cl)cc1` (stereo partly drawn) [Example 190-1, (4S)-1,3-bis(4-chlorophenyl)-5-hydroxy-4-methyl-4-(3-(trifluoromethyl)phenyl)imidazolidin-2-one], for which the IC50 was greater than 50000 nM.
With `Cc1ccc(N2C(=O)N(c3ccc(Cl)cc3)C(O)(c3cccc(OC(F)(F)F)c3)C23CCC3)cc1` (centres unmarked) [Example 315, 7-(4-chlorophenyl)-8-hydroxy-5-(p-tolyl)-8-(3-(trifluoromethoxy)phenyl)-5,7-diazaspiro[3.4]octan-6-one], under setting [1], the IC50 was less than 1000 nM.
With `Cc1ccc(N2C(=O)N(c3ccc(C)cc3)C(O)(c3cccc(OC(F)(F)F)c3)C2(C)C)cc1` (centres unmarked) [Example 176, 4-hydroxy-5,5-dimethyl-1,3-di-p-tolyl-4-(3-(trifluoromethoxy)phenyl)-imidazolidin-2-one], the IC50 is less than 1000 nM.
Regarding `Cc1ccc(N2C(=O)N(c3ccc(Cl)cc3)C3(COC3)C2(O)c2cccc(OC(F)(F)F)c2)cc1` (centres unmarked) [Compound 299, 5-(4-chlorophenyl)-8-hydroxy-7-(p-tolyl)-8-(3-(trifluoromethoxy)phenyl)-2-oxa-5,7-diazaspiro[3.4]octan-6-one], under setting [1], the IC50 was less than 1000 nM.
The same measure, in the same setting: the figure for `Cc1ccc(N2C(=O)N(c3ccc(C)cc3)C(O)(c3cccc(C#N)c3)C23COC3)cc1` (centres unmarked) [Compound 287, 3-(8-hydroxy-6-oxo-5,7-di-p-tolyl-2-oxa-5,7-diazaspiro[3.4]octan-8-yl)benzonitrile] is less than 1000 nM.
For the compound `CCC1(O)CN(c2ccc(Br)cc2)C(=O)N1c1ccc(Br)cc1` (centres unmarked) [Example 4, 1,3-bis(4-bromophenyl)-4-ethyl-4-hydroxyimidazolidin-2-one], the IC50 lay within 10000 to 50000 nM.
Same read-out and setting: the figure for `Cc1c(-c2cccc(Br)c2)n(-c2ccc(Cl)cc2)c(=O)n1-c1ccc(Cl)cc1` [Compound 246, 4-(3-bromophenyl)-1,3-bis(4-chlorophenyl)-5-methyl-1,3-dihydro-2H-imidazol-2-one] is less than 1000 nM.
On the same count and under the same terms, the figure for `CCCC1N(c2ccc(Cl)cc2)C(=O)N(c2ccc(Cl)cc2)C1(O)CCC` (centres unmarked) [Compound 122, 1,3-bis(4-chlorophenyl)-4-hydroxy-4,5-dipropylimidazolidin-2-one] is 10000 to 50000 nM; for `O=C1N(c2ccc(Br)cc2)C(=O)C(O)(c2cc3ccccc3o2)N1c1ccc(Br)cc1` (centres unmarked) [Example 213, 5-(benzofuran-2-yl)-1,3-bis(4-bromophenyl)-5-hydroxyimidazolidine-2,4-dione] it is greater than 50000 nM.
Same read-out and setting: to `O=C1N(c2ccc(F)cc2)CC(O)(c2ccccc2)N1c1ccc(F)cc1` (centres unmarked) [Example 11, 1,3-bis(4-fluorophenyl)-4-hydroxy-4-phenylimidazolidin-2-one] belongs greater than 50000 nM; to `O=C1N(c2ccc(Br)cc2)C(=O)C(O)(c2ccc3ccccc3c2)N1c1ccc(Br)cc1` (centres unmarked) [Compound 148, 1,3-bis(4-bromophenyl)-5-hydroxy-5-(naphthalen-2-yl)imidazolidine-2,4-dione], 50000 to 100000 nM; to `Cc1cccc(C2(O)CN(c3ccc(Cl)cc3)C(=O)N2c2ccc(Cl)cc2)c1` (centres unmarked) [Example 34, 1,3-bis(4-chlorophenyl)-4-hydroxy-4-(m-tolyl)imidazolidin-2-one], 1000 to 10000 nM.
`N#Cc1cccc(C2(O)[C@@H](C3CCC3)N(c3ccc(Cl)cc3)C(=O)N2c2ccc(Cl)cc2)c1` (stereo partly drawn) [Example 194-2, 3-((5R)-1,3-bis(4-chlorophenyl)-5-cyclobutyl-4-hydroxy-2-oxoimidazolidin-4-yl)benzonitrile]: the IC50 is less than 1000 nM.
On the same count and under the same terms, the figure for `N#Cc1cccc(C2(O)[C@@H](C3CC3)N(c3ccc(Cl)cc3)C(=O)N2c2ccc(Cl)cc2)c1` (stereo partly drawn) [Example 187-2, 3-((5R)-1,3-bis(4-chlorophenyl)-5-cyclopropyl-4-hydroxy-2-oxoimidazolidin-4-yl)benzonitrile] is less than 1000 nM; for `C[C@H]1N(c2ccc(Cl)cc2)C(=O)N(c2ccc(Cl)cc2)C1(O)c1cccc(C#N)c1` (single isomer, unassigned) [Compound 99-2] it is less than 1000 nM; for `CC1(C)N(c2ccc(Cl)cc2)C(=O)N(c2ccc(Cl)cc2)C1(O)c1cc(C#N)cc(C#N)c1` (centres unmarked) [Example 188, 5-(1,3-bis(4-chlorophenyl)-4-hydroxy-5,5-dimethyl-2-oxoimidazolidin-4-yl)isophthalonitrile] it is less than 1000 nM.
On the same count and under the same terms, the figure for `C#Cc1cccc(C2(O)C(C)N(c3ccc(Cl)cc3)C(=O)N2c2ccc(Cl)cc2)c1` (centres unmarked) [Compound 93, 1,3-bis(4-chlorophenyl)-4-(3-ethynylphenyl)-4-hydroxy-5-methylimidazolidin-2-one] is less than 1000 nM; for `CC1N(c2ccc(Cl)cc2)C(=O)N(c2ccc(Cl)cc2)C1(O)c1cccc(Br)c1` (centres unmarked) [Compound 94, 4-(3-bromophenyl)-1,3-bis(4-chlorophenyl)-4-hydroxy-5-methylimidazolidin-2-one] it is less than 1000 nM.
Regarding `C[C@@]1(c2cccc(Cl)c2)C(O)N(c2ccc(Cl)cc2)C(=O)N1c1ccc(Cl)cc1` (single isomer, unassigned) [Compound 149-2], the IC50 is less than 1000 nM.
On the same count and under the same terms, to `Cc1cccc(N2C(=O)N(c3cccc(C)c3)C(O)(c3cccc(OC(F)(F)F)c3)C2C)c1` (centres unmarked) [Compound 107, 4-hydroxy-5-methyl-1,3-di-m-tolyl-4-(3-(trifluoromethoxy)phenyl)imidazolidin-2-one] belongs less than 1000 nM; to `N#Cc1cccc(-c2c(C3CC3)n(-c3ccc(Cl)cc3)c(=O)n2-c2ccc(Cl)cc2)c1` [Example 48, 3-(1,3-bis(4-chlorophenyl)-5-cyclopropyl-2-oxo-2,3-dihydro-1H-imidazol-4-yl)benzonitrile], less than 1000 nM.
Same read-out and setting: the figure for `O=C1N(c2ccc(Br)cc2)C(=O)C(O)(c2ccco2)N1c1ccc(Br)cc1` (centres unmarked) [Example 198, 1,3-bis(4-bromophenyl)-5-(furan-2-yl)-5-hydroxyimidazolidine-2,4-dione] is greater than 50000 nM; for `O=c1n(-c2ccc(Cl)cc2)c(-c2cccc(OC(F)(F)F)c2)c(C2CC2)n1-c1ccc(Cl)cc1` [Compound 65, 1,3-bis(4-chlorophenyl)-4-cyclopropyl-5-(3-(trifluoromethoxy)phenyl)-1,3-dihydro-2H-imidazol-2-one] it is less than 1000 nM.
Same read-out and setting: to `O=C1N(c2cccc(Br)c2)C(=O)C(O)(c2ccccc2)N1c1cccc(Br)c1` (centres unmarked) [Example 181, 1,3-bis(3-bromophenyl)-5-hydroxy-5-phenylimidazolidine-2,4-dione] belongs 50000 to 100000 nM.
On to `Cc1ccc(N2C(=O)N(c3ccc(C#N)cc3)C(O)(c3cccc(C#N)c3)C23COC3)cc1` (centres unmarked) [Example 308, 3-(7-(4-cyanophenyl)-8-hydroxy-6-oxo-5-(p-tolyl)-2-oxa-5,7-diazaspiro[3.4]octan-8-yl)benzonitrile], for which the IC50 under setting [1] is less than 1000 nM.
For `C[C@]1(c2ccccc2)C(O)N(c2ccc(Cl)cc2)C(=O)N1c1ccc(Cl)cc1` (single isomer, unassigned) [Example 223-1], the IC50 lay within 10000 to 50000 nM.
The same measure, in the same setting: to `CC1N(c2ccc(Cl)cc2)C(=O)N(c2ccc(Cl)cc2)C1(O)c1cccc(OC(F)(F)F)c1` (centres unmarked) [Compound 129, 1,3-bis(4-chlorophenyl)-4-hydroxy-5-methyl-4-(3-(trifluoromethoxy)phenyl)imidazolidin-2-one] belongs less than 1000 nM.
